Test [1] deals with T1, COX-2 (Ovis aries, UniProt P79208).
T1 construct: purified enzyme from ewe placenta; from tissue; host or cells: ewe placenta
T1 sequence (P79208 17-603): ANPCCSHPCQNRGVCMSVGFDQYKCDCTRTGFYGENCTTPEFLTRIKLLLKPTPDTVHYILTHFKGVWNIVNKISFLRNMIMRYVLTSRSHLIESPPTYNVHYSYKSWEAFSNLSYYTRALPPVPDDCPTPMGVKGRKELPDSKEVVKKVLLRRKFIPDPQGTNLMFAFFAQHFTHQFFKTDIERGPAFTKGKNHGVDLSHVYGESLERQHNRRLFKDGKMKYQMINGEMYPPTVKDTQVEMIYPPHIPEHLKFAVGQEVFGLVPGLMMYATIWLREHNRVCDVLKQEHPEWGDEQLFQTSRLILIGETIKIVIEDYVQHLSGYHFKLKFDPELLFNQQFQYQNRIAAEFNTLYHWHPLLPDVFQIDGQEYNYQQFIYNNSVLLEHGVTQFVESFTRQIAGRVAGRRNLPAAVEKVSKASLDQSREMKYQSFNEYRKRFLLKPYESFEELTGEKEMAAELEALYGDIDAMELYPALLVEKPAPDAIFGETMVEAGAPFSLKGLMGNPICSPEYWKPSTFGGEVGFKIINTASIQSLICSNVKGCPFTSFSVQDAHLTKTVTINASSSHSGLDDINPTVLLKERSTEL
The experiment in a line: Inhibition of COX-2 enzymatic activity (purified enzyme from ewe placenta, PGE2 by EIA). The class given is biochemical. Conditions: for IC50: 1 U COX-2, 10 min preincubation at 25° C., 4 μM arachidonic acid, 5 min, n=1 to 4; for Selectivity COX-1/COX-2 ratio: ratio of IC50 COX-1 / IC50 COX-2. The protocol: (§1) Inhibition of the COX-1 and COX-2 enzymatic activities The molecule studied is preincubated for 10 minutes at 25° C. with 2 U of COX-1 (purified enzyme from ram seminal vesicles) or 1 U of COX-2 (purified enzyme from ewe placenta). Arachidonic acid (6 μM for COX-1,4 μM for COX-2) is added to the reaction medium and incubation is carried out for 5 minutes at 25° C. When incubation has ended, the enzymatic reaction is stopped by the addition of 1 N HCl and the PGE2 produced is determined by EIA. The results are expressed in the form of IC50, concentration in […] corresponding to 50% inhibition of the maximal enzymatic activity upon COX-1 and COX-2 (n=1 to 4 determinations).

The target in test [2] is T2, COX-1 (Ovis aries, UniProt P05979).
T2 construct: purified enzyme from ram seminal vesicles; from tissue; host or cells: ram seminal vesicles
T2 sequence (P05979 25-600): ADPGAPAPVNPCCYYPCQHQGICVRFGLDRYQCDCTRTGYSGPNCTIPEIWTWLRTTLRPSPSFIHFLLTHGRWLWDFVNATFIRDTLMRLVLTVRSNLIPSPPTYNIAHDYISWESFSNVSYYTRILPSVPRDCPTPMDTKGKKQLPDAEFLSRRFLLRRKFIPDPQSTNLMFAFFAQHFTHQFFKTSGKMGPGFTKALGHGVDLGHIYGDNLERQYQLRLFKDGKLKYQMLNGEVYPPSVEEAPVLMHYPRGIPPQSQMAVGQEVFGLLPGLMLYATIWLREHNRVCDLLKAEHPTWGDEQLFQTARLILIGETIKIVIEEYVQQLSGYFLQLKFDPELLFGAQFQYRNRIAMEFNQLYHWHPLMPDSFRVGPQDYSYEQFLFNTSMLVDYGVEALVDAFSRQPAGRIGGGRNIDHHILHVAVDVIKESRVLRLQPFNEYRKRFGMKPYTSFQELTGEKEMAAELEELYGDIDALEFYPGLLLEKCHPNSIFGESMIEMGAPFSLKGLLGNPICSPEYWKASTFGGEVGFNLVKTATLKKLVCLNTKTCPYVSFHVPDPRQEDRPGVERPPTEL
The test is described as follows: Inhibition of COX-1 enzymatic activity (purified enzyme from ram seminal vesicles, PGE2 by EIA). Type of test: biochemical. Conditions: 2 U COX-1, 10 min preincubation at 25° C., 6 μM arachidonic acid, 5 min; n=1 to 4. The protocol:
as §1

The nature of test [3]: Anti-inflammatory activity, test of oedema with carrageenan in rats. The class given is in vivo. Conditions: rat, oral, product 1 h before plantar injection of 2% carrageenan; dose inducing 50% of the maximal decrease of oedema volume; read-out: Anti-inflammatory Activity ID50. As for the experimental part:
(§2) The anti-inflammatory activity of the compounds of the Examples has been evaluated according to the method of oedema with carrageenan and the analgesic activity has been evaluated according to the method of arthritis with kaolin.
Anti-inflammatory activity:
The anti-inflammatory activity is evaluated in rats by the test of oedema with carrageenan. The product is administered orally at a rate of 2.5 ml/100 g (n=6 animals per dose) 2 hours 30 minutes after a water overload taken orally (2.5 ml/100 g). One hour after administration of the product, the oedema is induced by plantar subcutaneous injection of aqueous 2% carrageenan solution. The results are expressed as ID50, dose in mg/kg, calculated by linear regression, which induces 50% of the maximal decrease of the volume of the oedema obtained from each product tested.

Test [4] is described as follows: Analgesic activity, test of arthritis with kaolin in rats. The class given is in vivo. Conditions: 0.5 h; rat, oral, 30 min after intra-articular 10% kaolin; dose inducing 50% decrease of the maximal quotations of control. As for the experimental part: as §2
The analgesic activity is evaluated in rats by the test of arthritis with kaolin. Thirty minutes after intra-articular administration of an aqueous 10% suspension of kaolin, the product is administered orally at a rate of 1 ml/ 100 g (n=10 animals per dose). The results are expressed in the form of ED50, the dose in mg/kg which induces 50% decrease of the maximal quotations obtained in the control batch, calculated by linear regression.

Consider eight compounds from patent US5859036A, “3,4-diarylthiazolin-2-one or -2-thione derivatives, their methods of preparation and their uses in their methods of preparation and their uses in therapeutics” (Laboratories UPSA, priority 1997, dated 1999).

Usually IC50 stands for the concentration needed to halve the response being measured. Read a high IC50 as a need for much substance.

Take `CS(=O)(=O)c1ccc(-c2csc(=S)n2-c2cccc(Cl)c2)cc1` [Example 9]: in test [1], the IC50 is 3340 nM and the “Selectivity COX-1/COX-2 ratio” value is reported as 30. For the same compound, half-maximal inhibition in test [2] (IC50) was put at 100000 nM.
For `NS(=O)(=O)c1ccc(-c2csc(=S)n2-c2ccc(F)cc2)cc1` [Example 13] the same measures were 930 nM, 34 and 32000 nM.
`COc1ccc(-n2c(-c3ccc(S(N)(=O)=O)cc3)csc2=S)cc1Cl` [Example 20]: in test [1], half-maximal inhibition (IC50) required 2000 nM and the “Selectivity COX-1/COX-2 ratio” value came out at 9. In addition, the IC50 in test [2] was 17600 nM.
Regarding `NS(=O)(=O)c1ccc(-c2csc(=S)n2-c2cccc(F)c2)cc1` [Example 29], in test [1], inhibition was half-maximal at 650 nM (IC50) and the “Selectivity COX-1/COX-2 ratio” value was 396. In test [2], the half-maximal inhibitory concentration (IC50) is 258000 nM.
The corresponding values for `NS(=O)(=O)c1ccc(-c2csc(=S)n2-c2ccc(F)c(F)c2)cc1` [Example 30] are 210 nM, 94 and 19800 nM.
As for `NS(=O)(=O)c1ccc(-c2csc(=O)n2-c2ccc(Cl)c(Cl)c2)cc1` [Example 39], the IC50 in test [1] worked out at 140 nM; in test [2], 1940 nM. Further, the “Selectivity COX-1/COX-2 ratio” value in test [1] stood at 14.
Turning to `NS(=O)(=O)c1ccc(-c2csc(=O)n2-c2cccc(F)c2)cc1` [Example 45], the ED50 in test [3] is 2.8 mg/kg; in test [4], 1.3 mg/kg. In addition, the IC50 in test [1] was 240 nM; in test [2] it was 335000 nM. The “Selectivity COX-1/COX-2 ratio” value in test [1] was 1367.
With `CS(=O)(=O)c1ccc(-c2csc(=O)n2-c2ccc(Cl)cc2)cc1` [Example 46], in test [1], the IC50 came out at 570 nM and the “Selectivity COX-1/COX-2 ratio” value is 286. Inhibition in test [2] was half-maximal at 163000 nM (IC50).
